Each structure is given as a SMILES string. Where two headings read alike, the source gives them in different places.

In assay [1] the test system is Leptosphaeria nodorum (LEPTNO). The assay can be described thus: In vitro fungitoxicity of hydrazones with and without copper towards Leptosphaeria nodorum (Example 26). Format: cell-based. Particulars: 72 h at 25° C.; for inhibition of growth at 0.05 µg/mL: Parastagonospora nodorum, 72 h, read-out: LEPTNO % Inhn. Minus Copper Observed.
A further assay concerns Phytophthora infestans. The class given is in vivo, Phytophthora infestans on tomato. The following applies: applied 24 h before inoculation, assessed 7 days after inoculation.
Setting [2] is: compound 0.05 μg/mL, copper-minus medium.
The mark [3] stands for this setting: compound 0.05 μg/mL, copper-plus medium (CuCl2.2H2O).
Setting [4] is: hydrazone 50 ppm + 50 μM CuCl2.2H2O, tomato.
[5] abbreviates: copper-minus medium, test compound Concn. 0.05 μg/mL.
The mark [6] stands for this setting: copper-plus medium (CuCl2 10 μM), test compound Concn. 0.05 μg/mL.
Setting [7] is: hydrazone 50 ppm with 50 μM CuCl2.2H2O, tomato late blight.

Turning to `O=C(N/N=C/c1cc([N+](=O)[O-])ccc1O)c1ccccc1` [Example 152], the inhibition of growth at 0.05 µg/mL in assay [1] (setting [2]) stood at 0%. Further, in assay [1] (setting [3]), the “LEPTNO % Inhn. Plus Copper Observed” value was determined as 89.1%. The “TLB % Control” value in the assay with Phytophthora infestans (setting [4]) was 26.0%.

As to `COc1cc(Br)cc(/C=N/NC(=O)c2ccccc2)c1O` [Example 156], the inhibition of growth at 0.05 µg/mL in assay [1] (setting [2]) came to 7.4%. Also, the “LEPTNO % Inhn. Plus Copper Observed” value in assay [1] (setting [3]) worked out at 94.8%. Besides, the “TLB % Control” value in the assay with Phytophthora infestans (setting [4]) is recorded as 51.5%.

For `C/C(=N\NC(=O)c1ccccc1Br)c1ccccc1O` [Example 64], the inhibition of growth at 0.05 µg/mL in assay [1] (setting [2]) came out at 0%. Besides, the “LEPTNO % Inhn. Plus Copper Observed” value in assay [1] (setting [3]) was determined as 97.8%. Also, in the assay on Phytophthora infestans (setting [4]), the “TLB % Control” value is 43.0%.

For the molecule `COc1cccc(/C=N/NC(=O)c2ccccc2)c1O` [Example 149], the inhibition of growth at 0.05 µg/mL in assay [1] (setting [2]) worked out at 0%. In addition, the “LEPTNO % Inhn. Plus Copper Observed” value in assay [1] (setting [3]) worked out at 97.1%. The “TLB % Control” value in the assay with Phytophthora infestans (setting [4]) is 22.1%.

`C/C(=N\NC(=O)c1cccc(I)c1)c1ccccc1O` [Example 26]: the “LEPTNO % Inhn. Minus Copper Observed” value in assay [1] (setting [2]) is listed as 2.1%. Moreover, the “LEPTNO % Inhn. Plus Copper Observed” value in assay [1] (setting [3]) came to 98.4%. Moreover, in the assay with Phytophthora infestans (setting [4]), the “TLB % Control” value stood at 12.3%.

Regarding `O=C(N/N=C/c1ccccc1O)c1cccc(Cl)c1` [Example 175], in assay [1] (setting [2]), the inhibition of growth at 0.05 µg/mL was 4.9%. Moreover, in assay [1] (setting [3]), the “LEPTNO % Inhn. Plus Copper Observed” value is on record as 97.9%. Also, in the assay with Phytophthora infestans (setting [4]), the “TLB % Control” value came out at 80.0%.

As for `Cc1ccc(C(=O)N/N=C/c2cc([N+](=O)[O-])cc(Br)c2O)cc1` [Example 202], in assay [1] (setting [2]), the inhibition of growth at 0.05 µg/mL worked out at 2%. Besides, the “LEPTNO % Inhn. Plus Copper Observed” value in assay [1] (setting [3]) is 96.6%. The “TLB % Control” value in the assay with Phytophthora infestans (setting [4]) is on record as 49.1%.

For the molecule `COc1ccc(C(=O)N/N=C/c2cc(Cl)cc(Cl)c2O)cc1OC` [Example 85], the inhibition of growth at 0.05 µg/mL in assay [1] (setting [2]) came to 5.3%. In assay [1] (setting [3]), the “LEPTNO % Inhn. Plus Copper Observed” value worked out at 90.0%. Further, the “TLB % Control” value in the assay with Phytophthora infestans (setting [4]) worked out at 51.5%.

`O=C(N/N=C/c1cc(Br)cc([N+](=O)[O-])c1O)c1ccccc1` [Example 144]: the inhibition of growth at 0.05 µg/mL in assay [1] (setting [2]) came out at 0%. Besides, the “LEPTNO % Inhn. Plus Copper Observed” value in assay [1] (setting [3]) is listed as 98.5%. Further, the “TLB % Control” value in the assay on Phytophthora infestans (setting [4]) was 87.0%.

Consider `O=C(N/N=C/c1cc(Cl)cc(Cl)c1O)c1cccc(Br)c1` [Example 71], for which the inhibition of growth at 0.05 µg/mL in assay [1] (setting [2]) is 2.6%. Also, the “LEPTNO % Inhn. Plus Copper Observed” value in assay [1] (setting [3]) turned out to be 91.2%. The “TLB % Control” value with Phytophthora infestans (setting [4]) is on record as 78.0%.

Turning to `Cc1ccc(C(=O)N/N=C/c2ccccc2O)cc1` [Example 8], the inhibition of growth at 0.05 µg/mL in assay [1] (setting [2]) worked out at 0%. In addition, the “LEPTNO % Inhn. Plus Copper Observed” value in assay [1] (setting [3]) was found to be 92.6%. In the assay with Phytophthora infestans (setting [4]), the “TLB % Control” value is 59.6%.

Regarding `CC(C)/C(=N\NC(=O)c1ccccc1)c1cc(Cl)cc(Cl)c1O` [Example 588], in assay [1] (setting [5]), the inhibition of growth at 0.05 µg/mL stood at 7.6%. The “LEPTNO % Inhn. Plus Copper Observed” value in assay [1] (setting [6]) turned out to be 96.3%. In addition, the “TLB % Control” value with Phytophthora infestans (setting [7]) is recorded as 5.6%.

Regarding `O=C(N/N=C/c1cc(Cl)cc(Cl)c1O)c1ccc(F)cc1` [Example 22], in assay [1] (setting [2]), the inhibition of growth at 0.05 µg/mL is 16%. Also, in assay [1] (setting [3]), the “LEPTNO % Inhn. Plus Copper Observed” value was 97.6%. Also, the “TLB % Control” value in the assay with Phytophthora infestans (setting [4]) was found to be 93.2%.

Consider `COc1ccc(/C=N/NC(=O)c2ccccc2)c(O)c1` [Example 147], for which the inhibition of growth at 0.05 µg/mL in assay [1] (setting [2]) was 0%. Also, the “LEPTNO % Inhn. Plus Copper Observed” value in assay [1] (setting [3]) was 95.6%. The “TLB % Control” value in the assay on Phytophthora infestans (setting [4]) was found to be 13.5%.

On to `C/C(=N\NC(=O)c1ccccc1N)c1ccccc1O` [Example 51], for which the inhibition of growth at 0.05 µg/mL in assay [1] (setting [2]) came out at 0%. In addition, the “LEPTNO % Inhn. Plus Copper Observed” value in assay [1] (setting [3]) is 97.6%. Further, in the assay with Phytophthora infestans (setting [4]), the “TLB % Control” value is listed as 4.8%.

For `C/C(=N\NC(=O)c1cccc([N+](=O)[O-])c1)c1ccccc1O` [Example 37], the inhibition of growth at 0.05 µg/mL in assay [1] (setting [2]) was 3.3%. Besides, the “LEPTNO % Inhn. Plus Copper Observed” value in assay [1] (setting [3]) worked out at 97.0%. The “TLB % Control” value in the assay on Phytophthora infestans (setting [4]) was found to be 33.0%.

Turning to `CC/C(=N\NC(=O)c1ccccc1Cl)c1ccccc1O` [Example 50], the inhibition of growth at 0.05 µg/mL in assay [1] (setting [2]) was determined as 3.5%. Also, in assay [1] (setting [3]), the “LEPTNO % Inhn. Plus Copper Observed” value was 97.4%. Besides, in the assay with Phytophthora infestans (setting [4]), the “TLB % Control” value was determined as 43.5%.

`Cc1cccc(C(=O)N/N=C/c2ccccc2O)c1` [Example 174]: the inhibition of growth at 0.05 µg/mL in assay [1] (setting [2]) turned out to be 0%. Besides, the “LEPTNO % Inhn. Plus Copper Observed” value in assay [1] (setting [3]) is reported as 97.0%. The “TLB % Control” value in the assay with Phytophthora infestans (setting [4]) came to 72.7%.

On to `O=C(N/N=C/c1cc(Br)cc(Br)c1O)c1cccc(Cl)c1` [Example 122], for which, in assay [1] (setting [2]), the inhibition of growth at 0.05 µg/mL stood at 13.5%. Also, the “LEPTNO % Inhn. Plus Copper Observed” value in assay [1] (setting [3]) was found to be 98.7%. Besides, in the assay with Phytophthora infestans (setting [4]), the “TLB % Control” value came out at 92.7%.

As to `C/C(=N\NC(=O)c1cccc(C)c1)c1ccccc1O` [Example 38], in assay [1] (setting [2]), the inhibition of growth at 0.05 µg/mL amounted to 2.4%. In addition, in assay [1] (setting [3]), the “LEPTNO % Inhn. Plus Copper Observed” value was determined as 98.3%. Moreover, the “TLB % Control” value with Phytophthora infestans (setting [4]) amounted to 17.0%.

Turning to `CCOc1ccc(C(=O)N/N=C(\C)c2ccccc2O)cc1` [Example 18], the inhibition of growth at 0.05 µg/mL in assay [1] (setting [2]) is 0%. In assay [1] (setting [3]), the “LEPTNO % Inhn. Plus Copper Observed” value is listed as 96.9%. The “TLB % Control” value with Phytophthora infestans (setting [4]) is listed as 38.6%.

As to `Cc1ccc(C(=O)N/N=C/c2cc(Cl)cc(Cl)c2O)cc1` [Example 72], the inhibition of growth at 0.05 µg/mL in assay [1] (setting [2]) amounted to 14.1%. Also, the “LEPTNO % Inhn. Plus Copper Observed” value in assay [1] (setting [3]) turned out to be 91.3%. Moreover, in the assay on Phytophthora infestans (setting [4]), the “TLB % Control” value is listed as 81.3%.

Regarding `C/C(=N\NC(=O)c1ccccc1C)c1ccccc1O` [Example 66], in assay [1] (setting [2]), the inhibition of growth at 0.05 µg/mL amounted to 0.1%. Moreover, the “LEPTNO % Inhn. Plus Copper Observed” value in assay [1] (setting [3]) was 97.4%. For the same molecule, in the assay on Phytophthora infestans (setting [4]), the “TLB % Control” value is reported as 51.0%.

`O=C(N/N=C/c1cc(Br)cc(Br)c1O)c1ccc(Cl)cc1` [Example 120]: the inhibition of growth at 0.05 µg/mL in assay [1] (setting [2]) came to 19.9%. The “LEPTNO % Inhn. Plus Copper Observed” value in assay [1] (setting [3]) came to 98.2%. Also, the “TLB % Control” value in the assay on Phytophthora infestans (setting [4]) was 92.6%.

As for `O=C(N/N=C/c1cc(Br)ccc1O)c1ccccc1Oc1ccccc1` [Example 19], in assay [1] (setting [2]), the inhibition of growth at 0.05 µg/mL was determined as 2.9%. Besides, the “LEPTNO % Inhn. Plus Copper Observed” value in assay [1] (setting [3]) is reported as 88.8%. Moreover, in the assay with Phytophthora infestans (setting [4]), the “TLB % Control” value is 25.0%.

Regarding `C/C(=N\NC(=O)c1ccccc1O)c1cc(C(F)(F)F)ccc1O` [Example 538], the inhibition of growth at 0.05 µg/mL in assay [1] (setting [5]) came to 12.4%. Further, in assay [1] (setting [6]), the “LEPTNO % Inhn. Plus Copper Observed” value came to 96.5%. In addition, the “TLB % Control” value with Phytophthora infestans (setting [7]) turned out to be 44.0%.

Take `C/C(=N\NC(=O)c1cc(C)cc(C)c1)c1ccccc1O` [Example 39]: the inhibition of growth at 0.05 µg/mL in assay [1] (setting [2]) was determined as 1.3%. Further, in assay [1] (setting [3]), the “LEPTNO % Inhn. Plus Copper Observed” value came out at 97.9%. Also, the “TLB % Control” value in the assay on Phytophthora infestans (setting [4]) is 18.6%.

Regarding `CC/C(=N\NC(=O)c1ccccc1)c1ccccc1O` [Example 130], the inhibition of growth at 0.05 µg/mL in assay [1] (setting [2]) turned out to be 1.2%. Further, the “LEPTNO % Inhn. Plus Copper Observed” value in assay [1] (setting [3]) is listed as 98.6%. Further, the “TLB % Control” value in the assay on Phytophthora infestans (setting [4]) turned out to be 50.8%.

Take `O=C(N/N=C/c1cc(Br)ccc1O)c1ccccc1Cl` [Example 170]: in assay [1] (setting [2]), the inhibition of growth at 0.05 µg/mL is 0%. Besides, the “LEPTNO % Inhn. Plus Copper Observed” value in assay [1] (setting [3]) is on record as 94.5%. In addition, the “TLB % Control” value with Phytophthora infestans (setting [4]) was determined as 65.5%.

For the molecule `C/C(=N\NC(=O)c1ccc(Br)cc1)c1cc(Cl)cc(Cl)c1O` [Example 139], the inhibition of growth at 0.05 µg/mL in assay [1] (setting [2]) was found to be 1.7%. Besides, the “LEPTNO % Inhn. Plus Copper Observed” value in assay [1] (setting [3]) worked out at 97.1%. In addition, in the assay on Phytophthora infestans (setting [4]), the “TLB % Control” value amounted to 93.0%.

Turning to `COc1cc([N+](=O)[O-])cc(/C=N/NC(=O)c2ccccc2)c1O` [Example 155], the inhibition of growth at 0.05 µg/mL in assay [1] (setting [2]) was 1.9%. Besides, the “LEPTNO % Inhn. Plus Copper Observed” value in assay [1] (setting [3]) was 78.3%. Also, the “TLB % Control” value with Phytophthora infestans (setting [4]) is 32.0%.

In the case of `O=C(N/N=C/c1cc(Cl)cc(Br)c1O)c1ccccc1Br` [Example 193], the inhibition of growth at 0.05 µg/mL in assay [1] (setting [2]) is 0%. In assay [1] (setting [3]), the “LEPTNO % Inhn. Plus Copper Observed” value amounted to 95.1%. In addition, the “TLB % Control” value with Phytophthora infestans (setting [4]) is on record as 80.0%.

Values taken from US20120010075A1 (priority 2009, published 2012).
